Assays:
[1] = Plasma concentration after a single oral dose in mice; format: in vivo, BALB/c mice; conditions: for Plasma 11-001 concentration: 400 mg/kg single oral dose
Procedure: The pharmacokinetic properties of compound 11-001 (see FIG. 14) after a single oral dose were studied in 10-week old female BALB/c mice. Compound 11-001 was emulsified in 2.5% carboxymethyl cellulose at a concentration of 20 mg/ml and administered by gavage at a dosage of 400 mg/kg body weight (administered volume was 20 ml/kg body weight). The mice were then sacrificed at various intervals after administration (0, 1 hr, 2 hr, 4 hr, and 6 hr). Plasma was obtained from blood (mixed with K3EDTA to prevent coagulation) by centrifugation at 4,300 g for 10 min, extracted twice with ethyl acetate/propanol (9:1, v/v). The extracts were centrifuged at 5,000 g for 10 min to form aqueous/organic layers. The organic layer containing compound 11-001 was centrifuged at 20,000 g for 10 min to sediment particles. The extraction recovery from plasma was approximately 90%. Thirty μl thereof were analyzed by HPLC equipped with a C18 reversed phase column and compound 11-001 was detected at 330 nm. The elution solvent system was 50% acetonitrile, 50% water and 1 g/L trifluoroacetic acid with a flow rate of 1 ml/min.

[2] = Brain content after a single oral dose in mice; format: in vivo, BALB/c mice; conditions: for Brain 11-001 content: 400 mg/kg single oral dose
Procedure: To study the distribution of compound 11-001 in brain at various time intervals (0, 1 hr, 2 hr, 4 hr, and 6 hr) after gavage (400 mg/kg), the mice were anesthetized with cloral hydrate and perfused through the heart with phosphate buffered saline (PBS) to remove blood in the brain. The mice were then decapitated, the brains removed, and quickly frozen and stored at −80° C. before further analysis. To measure the level of compound 11-001 in the brain, weighed brain pieces were homogenized by sonication in 3 volumes of PBS. The homogenates were then extracted and measured by HPLC as described above.

HT22 cells = assay: HT22 cell survival after glutamate in the CREB phosphorylation experiment; format: cell-based; conditions: 1 μM compound; all cells died in its absence
Procedure: CREB phosphorylation in response to oxidative stress was evaluated in the presence of invention compounds. Glutamate was added to HT22 cells in the presence or absence of compound 11-001 (at 1 μM). […] Furthermore, all of the HT22 cells died in the absence of compound 11-001, and over 90% lived in the presence of compound 11-001.

JNK-3 = JNK-3 (Homo sapiens, UniProt P53779); assay: Protein kinase panel screen: JNK-3; format: biochemical
Chain of JNK-3 (P53779 whole entry, species assumed): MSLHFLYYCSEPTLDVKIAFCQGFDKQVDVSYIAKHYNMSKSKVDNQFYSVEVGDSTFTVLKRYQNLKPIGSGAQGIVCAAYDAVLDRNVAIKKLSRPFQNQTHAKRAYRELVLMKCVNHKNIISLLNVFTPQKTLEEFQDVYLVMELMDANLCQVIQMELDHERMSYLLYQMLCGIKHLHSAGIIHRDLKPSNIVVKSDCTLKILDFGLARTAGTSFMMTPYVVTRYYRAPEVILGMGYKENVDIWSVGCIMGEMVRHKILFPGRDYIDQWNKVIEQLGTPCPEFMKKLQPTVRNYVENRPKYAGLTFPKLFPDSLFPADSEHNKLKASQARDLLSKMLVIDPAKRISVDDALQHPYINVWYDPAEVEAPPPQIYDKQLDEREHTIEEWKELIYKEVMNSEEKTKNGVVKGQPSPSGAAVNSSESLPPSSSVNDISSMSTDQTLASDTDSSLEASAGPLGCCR
Description: (§1) A panel of 14 protein kinases was screened against compound 11-001. […] The phosphorylation of the other tested kinases was not altered.

JNK-1 = JNK-1 (Homo sapiens, UniProt P45983); assay: Protein kinase panel screen: JNK-1; format: biochemical
Chain of JNK-1 (P45983 whole entry, species assumed): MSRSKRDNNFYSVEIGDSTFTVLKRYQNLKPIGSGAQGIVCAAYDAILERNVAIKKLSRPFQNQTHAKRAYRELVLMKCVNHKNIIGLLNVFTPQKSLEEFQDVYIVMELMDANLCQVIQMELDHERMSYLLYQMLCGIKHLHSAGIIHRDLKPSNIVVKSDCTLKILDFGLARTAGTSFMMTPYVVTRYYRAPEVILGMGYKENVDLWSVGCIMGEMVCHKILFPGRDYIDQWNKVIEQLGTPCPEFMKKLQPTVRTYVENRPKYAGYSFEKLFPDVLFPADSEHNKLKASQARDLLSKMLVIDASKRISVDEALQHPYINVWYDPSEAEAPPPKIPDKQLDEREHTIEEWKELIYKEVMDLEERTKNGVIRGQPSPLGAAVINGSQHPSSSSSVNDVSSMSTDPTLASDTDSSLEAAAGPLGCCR
Description: as §1

JNK-2 = JNK-2 (Homo sapiens, UniProt P45984); assay: Protein kinase panel screen: JNK-2; format: biochemical
Chain of JNK-2 (P45984 whole entry, species assumed): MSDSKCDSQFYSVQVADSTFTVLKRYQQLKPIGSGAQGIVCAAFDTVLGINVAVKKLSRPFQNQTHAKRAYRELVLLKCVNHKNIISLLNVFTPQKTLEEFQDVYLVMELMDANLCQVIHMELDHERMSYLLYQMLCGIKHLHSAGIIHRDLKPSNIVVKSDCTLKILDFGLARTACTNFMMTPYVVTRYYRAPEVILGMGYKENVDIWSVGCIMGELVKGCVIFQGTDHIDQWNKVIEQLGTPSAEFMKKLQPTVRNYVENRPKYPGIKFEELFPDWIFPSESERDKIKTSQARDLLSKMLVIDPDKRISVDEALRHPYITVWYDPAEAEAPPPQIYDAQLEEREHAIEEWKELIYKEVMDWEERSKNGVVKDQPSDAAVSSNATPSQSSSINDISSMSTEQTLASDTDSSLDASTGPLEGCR
Description: as §1

p38 = p38 phosphorylation caused by glutamate in cells; format: cell-based; conditions: HT22 cells and primary cortical neurons
Description: as §1

JNK = JNK phosphorylation caused by glutamate in cells; format: cell-based; conditions: HT22 cells and primary cortical neurons
Description: as §1

[3] = test system: HT22 cells and primary cortical neurons; assay: Cell death caused by glutamate in HT22 cells and primary cortical neurons; format: cell-based
[4] = test system: rat primary cortical neurons; assay: Neuroprotective activity, rat primary cortical neurons cultured in serum-containing or serum-free medium; format: cell-based
Procedure: Primary cortical neurons are prepared from 18-day-old embryos of Sprague-Dawley rats as described (Liu and Schubert J. Neurochem. 69, 2285-2293 (1997) and J. Neurochem. 71, 2322-2329 (1998)). Briefly, the cerebral cortex is dissected out under an anatomical microscope and is freed of meninges and blood vessels. The cortex is cut into small pieces and is then dissociated by trypsin digestion and passed through a pipette tip. Dissociated neurons are suspended in various media and plated on polylysine-coated 35 mm tissue culture dishes (1×10^6 cells/dish). Several different culture conditions were used. Invention compounds were added to cell culture dishes. Cell survival was measure 2-7 days after compound administration.
The following serum-containing medium was used: minimal essential medium (Sigma) containing 30 mM glucose, 2 mM glutamine, 1 mM pyruvate, penicillin (100 U/ml), streptomycin (100 μg/ml), and 10% fetal calf serum. At a plating density of 1×10^6 cells/dish, most neurons die after one week of culture in this medium. If plated at a density of 2×10^6 cells/dish, then most neurons survive. Glia proliferate in this medium regardless of the initial cell density. Therefore the cell density-dependent neuronal survival in this system is most likely dependent on the neurotrophic factors secreted by the neurons, not by the glia. The results are the same when glial proliferation is inhibited by cytosine arabinoside.
A serum-free medium containing DMEM/F-12 plus N2 supplements (Invitrogen). When plated at a density of 1×10^6 cells/dish, almost all neurons die within three days. The cell death mechanisms in this culture medium are most likely to be oxidative stress and trophic factor deficiency.
A number of compounds according to the present invention were synthesized (using standard synthetic techniques) to explore the structure-activity relationships. The structures of exemplary invention compounds tested are provided herein. The structure-activity relationships of various compounds according to the present invention with rat primary cortical neurons cultured in serum-containing or serum-free medium are set forth in Table 1.

## COc1cc(/C=C/c2cc(/C=C/c3ccc(O)c(OC)c3)n(-c3ccccc3)n2)ccc1O [Compound 11-001]
[1]; 0 hr after gavage
  Plasma 11-001 concentration: 0 µg/mL
[1]; 400 mg/kg by gavage
  Time of maximum plasma concentration: around 2 hr
[1]; 1 hr after gavage
  Plasma 11-001 concentration: 1.84 µg/mL
[1]; 2 hr after gavage
  Plasma 11-001 concentration: 2.30 µg/mL
[1]; 4 hr after gavage
  Plasma 11-001 concentration: 1.25 µg/mL
[1]; 6 hr after gavage
  Plasma 11-001 concentration: 0.67 µg/mL
[2]; 0 hr after gavage
  Brain 11-001 content: 0 μg/g brain
[2]; 400 mg/kg by gavage
  Time of maximum brain concentration: 1 h
[2]; 400 mg/kg by gavage, mice
  Oral absorption and passage of the blood-brain barrier: can be orally absorbed and traverse the blood-brain barrier
[2]; 1 hr after gavage
  Brain 11-001 content: 2.62 μg/g brain
[2]; 2 hr after gavage
  Brain 11-001 content: 1.28 μg/g brain
[2]; 4 hr after gavage
  Brain 11-001 content: 0.89 μg/g brain
[2]; 6 hr after gavage
  Brain 11-001 content: 0.95 μg/g brain
HT22 cells
  HT22 cells that lived after glutamate: over 90%
JNK-3
  Inhibition of kinase in panel of 14 protein kinases: partially inhibited
JNK-1
  Inhibition of kinase in panel of 14 protein kinases: None of the other enzymes that were assayed, including JNK-1 or JNK-2, were affected
JNK-2
  Inhibition of kinase in panel of 14 protein kinases: None of the other enzymes that were assayed, including JNK-1 or JNK-2, were affected
p38
  Block of p38 phosphorylation caused by glutamate: about 30%
JNK
  Block of JNK phosphorylation caused by glutamate: about 30%
[3]
  Effect on cell death: inhibited cell death

## C(=C\c1cc(/C=C/c2ccccc2)n(-c2ccccc2)n1)/c1ccccc1 [Compound 22-020]
[4]
  Neuroprotective activity at 1 μM: 0

## COc1ccc(/C=C/c2cc(/C=C/c3ccc(OC)cc3)n(-c3ccccc3)n2)cc1 [Compound 22-022]
[4]
  Neuroprotective activity at 1 μM: 0

## COc1cccc(/C=C/c2cc(/C=C/c3cccc(OC)c3)n(-c3ccccc3)n2)c1 [Compound 22-024]
[4]
  Neuroprotective activity at 1 μM: 0

## COc1ccc(/C=C/c2cc(/C=C/c3ccc(OC)c(OC)c3)n(-c3ccccc3)n2)cc1OC [Compound 22-026]
[4]
  Neuroprotective activity at 1 μM: 0

— patent US7531669B2, “Methods for treating neural disorders and conditions, and compounds useful therefor” (The Salk Institute for Biological Studies, priority 2003, dated 2009)
